Measured values published in article PMC11189555, “Aryl amino acetamides prevent Plasmodium falciparum ring development via targeting the lipid-transfer protein PfSTART1” (Nature Communications, 2024).
Read-outs that look alike come from different tables or passages of the source.

Tests used:
[1] = tested on: 3D7 P. falciparum parasites; assay: Growth inhibition assay (72 h, LDH activity); format: cell-based, Plasmodium falciparum; conditions: for EC50: Plasmodium falciparum
Outline: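 Synchronised ring-stage P. falciparum (0.3-0.6% parasitemia, 2% haematocrit) grown 72 h in serial compound dilutions, sometimes with 0, 0.25 or 2.5 mM glucosamine. Growth read as LDH activity (Malstat/NBT, A650) after freeze-thaw, normalised to DMSO and uninfected RBC. EC50 by nonlinear regression.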

[2] = molecular target: T1, recombinant PfSTART1(WT) (I149-V394) (Plasmodium falciparum, UniProt Q8I298); assay: Isothermal titration calorimetry; format: binding; conditions: ITC
T1 construct: START domain alone (I149-V394 from PF3D7_0104200); 8xHis tag (N); TEV protease cleavage site (N); made in house; host or cells: Sf21 insect cells (baculovirus)
Text: Codon optimised (Spodoptera frugiperda, Sf) START domain alone (I149-V394 from PF3D7_0104200) was synthesised by Integrated DNA Technologies and cloned into a modified baculovirus transfer vector (pAcGP67-A) with a N-terminal GP67-signal sequence, 8xHis tag, and TEV protease cleavage site. Recombinant baculovirus was generated via the flashBACTM Baculovirus Expression System using Sf21 cells (Life Technologies), amplified to reach a third passage viral stock, and 1.5% used to infect Sf21 for protein expression. After incubation for three days at 28 °C, media containing secreted protein was harvested by centrifugation and supplemented with 50 mM Tris pH 7.5, 20 mM MgCl2, 100 mM NaCl, and 10-20 mM imidazole. The supplemented protein sample was purified by nickel affinity chromatography (HisTrap Excel 5 mL, Cytiva), and eluted with 20 mM Tris pH 7.5, 500 mM NaCl, 300-500 mM imidazole. Eluted fractions were further purified using size-exclusion chromatography (Superdex S75 16/600 or Superdex 10/300, Cytiva) with the column pre-equilibrated with 20 mM HEPES pH 7.5, 150 mM NaCl, and peak-containing fractions concentrated and stored at -80 °C until required. If required, prior to ITC, a second size-exclusion chromatography step was performed to remove soluble aggregates.
ITC experiments were performed on a MicroCal PEAQ-ITC calorimeter at 25 °C, with a stirring speed of 750 rpm and a reference power of 5 μcal/sec. 500 μM M-833 series inhibitor solutions were diluted to 10 μM in 50 mM NaPO4^-3 (pH 7.4), 150 mM NaCl with a final DMSO concentration of 2% (v/v) (cell sample). PfSTART1 protein was dialysed extensively against 50 mM NaPO4^-3 (pH 7.4), 150 mM NaCl, before diluting to 90 μM in the same buffer with 2% (v/v) DMSO (syringe sample). The first injection was 0.4 μL over a 0.8 s duration, and the remaining 19 injections were 2 μL of 4 s duration, with 150 s injection spacing. Data were collected and analysed using the PEAQ-ITC software (MicroCal) and fit by a single site binding model. A fitted offset (constant control heat) was also applied to the integrated heat.

T1 sequence (Q8I298 entry or part of it): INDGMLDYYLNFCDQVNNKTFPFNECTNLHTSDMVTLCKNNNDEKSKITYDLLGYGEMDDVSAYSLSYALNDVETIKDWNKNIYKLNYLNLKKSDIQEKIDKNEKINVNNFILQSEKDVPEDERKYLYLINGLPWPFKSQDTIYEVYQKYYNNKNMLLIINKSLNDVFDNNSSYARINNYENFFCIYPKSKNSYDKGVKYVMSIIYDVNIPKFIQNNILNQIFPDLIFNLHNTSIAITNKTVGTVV

SMILES: CN(C(=O)C(C)(C)Nc1ccc(Cl)c(S(=O)(=O)N2CCOCC2)c1)c1ccc(F)c(Cl)c1 [compound 4]
- Growth inhibition % (LDH, relative to DMSO) ([1]; 3D7, 0.00152416 uM, biological replicate 3 (2023-02-07)): -17.5745
- Growth inhibition % (LDH, relative to DMSO) ([1]; 3D7, 0.00304832 uM, biological replicate 1 (2021-10-25)): -18.3864
- Growth inhibition % (LDH, relative to DMSO) ([1]; 3D7, 0.00457247 uM, biological replicate 3 (2023-02-07)): -17.9271
- Growth inhibition % (LDH, relative to DMSO) ([1]; 3D7, 0.00914495 uM, biological replicate 1 (2021-10-25)): -26.0151
- Growth inhibition % (LDH, relative to DMSO) ([1]; 3D7, 0.0137174 uM, biological replicate 3 (2023-02-07)): -25.0392
- Growth inhibition % (LDH, relative to DMSO) ([1]; 3D7, 0.0274348 uM, biological replicate 1 (2021-10-25)): -36.8606
- Growth inhibition % (LDH, relative to DMSO) ([1]; 3D7, 0.0411523 uM, biological replicate 3 (2023-02-07)): -21.1207
- Growth inhibition % (LDH, relative to DMSO) ([1]; 3D7, 0.078125 uM, biological replicate 2 (2023-02-07)): -4.3247
- Growth inhibition % (LDH, relative to DMSO) ([1]; 3D7, 0.0823045 uM, biological replicate 1 (2021-10-25)): -42.8019
- Growth inhibition % (LDH, relative to DMSO) ([1]; 3D7, 0.123457 uM, biological replicate 3 (2023-02-07)): -34.2281
- Growth inhibition % (LDH, relative to DMSO) ([1]; 3D7, 0.15625 uM, biological replicate 2 (2023-02-07)): -4.463
- Growth inhibition % (LDH, relative to DMSO) ([1]; 3D7, 0.246914 uM, biological replicate 1 (2021-10-25)): -45.3858
- Growth inhibition % (LDH, relative to DMSO) ([1]; 3D7, 0.3125 uM, biological replicate 2 (2023-02-07)): -3.423
- Growth inhibition % (LDH, relative to DMSO) ([1]; 3D7, 0.37037 uM, biological replicate 3 (2023-02-07)): -26.6654
- Growth inhibition % (LDH, relative to DMSO) ([1]; 3D7, 0.625 uM, biological replicate 2 (2023-02-07)): -4.556
- Growth inhibition % (LDH, relative to DMSO) ([1]; 3D7, 0.740741 uM, biological replicate 1 (2021-10-25)): -43.9445
- Growth inhibition % (LDH, relative to DMSO) ([1]; 3D7, 1.11111 uM, biological replicate 3 (2023-02-07)): -37.6176
- Growth inhibition % (LDH, relative to DMSO) ([1]; 3D7, 1.25 uM, biological replicate 2 (2023-02-07)): 10.8002
- Growth inhibition % (LDH, relative to DMSO) ([1]; 3D7, 2.22222 uM, biological replicate 1 (2021-10-25)): -10.0721
- Growth inhibition % (LDH, relative to DMSO) ([1]; 3D7, 2.5 uM, biological replicate 2 (2023-02-07)): 18.1545
- Growth inhibition % (LDH, relative to DMSO) ([1]; 3D7, 3.33333 uM, biological replicate 3 (2023-02-07)): -31.3871
- Growth inhibition % (LDH, relative to DMSO) ([1]; 3D7, 5 uM, biological replicate 2 (2023-02-07)): 37.6735
- Growth inhibition % (LDH, relative to DMSO) ([1]; 3D7, 6.66667 uM, biological replicate 1 (2021-10-25)): 35.3489
- Growth inhibition % (LDH, relative to DMSO) ([1]; 3D7, 10 uM, biological replicate 2 (2023-02-07)): 60.2451
- Growth inhibition % (LDH, relative to DMSO) ([1]; 3D7, 10 uM, biological replicate 3 (2023-02-07)): 26.4107
- Growth inhibition % (LDH, relative to DMSO) ([1]; 3D7, 20 uM, biological replicate 1 (2021-10-25)): 75.5669
- Growth inhibition % (LDH, relative to DMSO) ([1]; 3D7, 20 uM, biological replicate 2 (2023-02-07)): 87.1878
- EC50 ([1]; 3D7, 72 h, Supplementary Table 1, 3D7, 72 h, read-out: EC50): 10 µM
- EC50 ([1]; 3D7, Fig 4A, 3D7 parasites, read-out: Pf 3D7 EC50 (SD)): > 10 µM
- interaction with PfSTART1(WT) [2]: did not interact
